In PubChem BioAssay (NCI):
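All cell lines were grown in 96-well plates and treated with compound for 48 hours. At the TGI there is no net growth.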

Each compound was assayed on MOLT-4 leukemia (assay: inhibition of tumour cell growth, NCI panel, 48 h).
With `CCCCCCCCCCCCCCCC/C(C(=O)OC)=C(/O)C(=O)OCC` the TGI was > 100 µM.
For `Nc1nc(-c2ccco2)cc(-c2ccco2)n1`, the TGI was > 100 µM.

What follows are compounds tested on NCI-H226 lung (assay: inhibition of tumour cell growth, NCI panel, 48 h).
With `C=CCOC(C)n1c(C)cc(=O)n(C(C)OCC=C)c1=O` (stereo unspecified) the TGI was > 100 µM.
`O=C(c1ccccc1)N1CCN2CCN=C(c3ccccc3)C21c1ccccc1` (stereo unspecified) was tested, and the TGI was > 100 µM.
With `CCCCCCCCCCCCCCCC/C(C(=O)OC)=C(/O)C(=O)OCC` the TGI was > 100 µM.
With `Nc1nc(-c2ccco2)cc(-c2ccco2)n1` the TGI was > 100 µM.

Each compound was assayed on NCI-H23 lung (assay: inhibition of tumour cell growth, NCI panel, 48 h).
In the case of `C=CCOC(C)n1c(C)cc(=O)n(C(C)OCC=C)c1=O` (stereo unspecified), the TGI was > 100 µM.
`O=C(c1ccccc1)N1CCN2CCN=C(c3ccccc3)C21c1ccccc1` (stereo unspecified) was tested, and the TGI was > 100 µM.
In the case of `CCCCCCCCCCCCCCCC/C(C(=O)OC)=C(/O)C(=O)OCC`, the TGI was > 100 µM.
With `Nc1nc(-c2ccco2)cc(-c2ccco2)n1` the TGI was > 100 µM.

What follows are compounds tested on NCI-H460 lung (assay: inhibition of tumour cell growth, NCI panel, 48 h).
In the case of `O=C(c1ccccc1)N1CCN2CCN=C(c3ccccc3)C21c1ccccc1` (stereo unspecified), the TGI was > 100 µM.
`CCCCCCCCCCCCCCCC/C(C(=O)OC)=C(/O)C(=O)OCC` was tested, and the TGI was > 100 µM.
For `Nc1nc(-c2ccco2)cc(-c2ccco2)n1`, the TGI was > 100 µM.

What follows are compounds tested on NCI-H522 lung (assay: inhibition of tumour cell growth, NCI panel, 48 h).
For `C=CCOC(C)n1c(C)cc(=O)n(C(C)OCC=C)c1=O` (stereo unspecified), the TGI was > 100 µM.
`CCCCCCCCCCCCCCCC/C(C(=O)OC)=C(/O)C(=O)OCC` was tested, and the TGI was > 100 µM.
For `Nc1nc(-c2ccco2)cc(-c2ccco2)n1`, the TGI was > 100 µM.

The compounds below were run on OVCAR-3 ovarian (assay: inhibition of tumour cell growth, NCI panel, 48 h).
With `O=C(c1ccccc1)N1CCN2CCN=C(c3ccccc3)C21c1ccccc1` (stereo unspecified) the TGI was > 100 µM.
In the case of `CCCCCCCCCCCCCCCC/C(C(=O)OC)=C(/O)C(=O)OCC`, the TGI was > 100 µM.
`Nc1nc(-c2ccco2)cc(-c2ccco2)n1` was tested, and the TGI was > 100 µM.

Each compound was assayed on OVCAR-4 ovarian (assay: inhibition of tumour cell growth, NCI panel, 48 h).
With `C=CCOC(C)n1c(C)cc(=O)n(C(C)OCC=C)c1=O` (stereo unspecified) the TGI was > 100 µM.
With `O=C(c1ccccc1)N1CCN2CCN=C(c3ccccc3)C21c1ccccc1` (stereo unspecified) the TGI was > 100 µM.
For `CCCCCCCCCCCCCCCC/C(C(=O)OC)=C(/O)C(=O)OCC`, the TGI was > 100 µM.
`Nc1nc(-c2ccco2)cc(-c2ccco2)n1` was tested, and the TGI was > 100 µM.

Each compound was assayed on OVCAR-5 ovarian (assay: inhibition of tumour cell growth, NCI panel, 48 h).
`CCCCCCCCCCCCCCCC/C(C(=O)OC)=C(/O)C(=O)OCC` was tested, and the TGI was > 100 µM.
`Nc1nc(-c2ccco2)cc(-c2ccco2)n1` was tested, and the TGI was > 100 µM.

The compounds below were run on OVCAR-8 ovarian (assay: inhibition of tumour cell growth, NCI panel, 48 h).
For `C=CCOC(C)n1c(C)cc(=O)n(C(C)OCC=C)c1=O` (stereo unspecified), the TGI was > 100 µM.
For `O=C(c1ccccc1)N1CCN2CCN=C(c3ccccc3)C21c1ccccc1` (stereo unspecified), the TGI was > 100 µM.
For `CCCCCCCCCCCCCCCC/C(C(=O)OC)=C(/O)C(=O)OCC`, the TGI was > 100 µM.
With `Nc1nc(-c2ccco2)cc(-c2ccco2)n1` the TGI was > 100 µM.

The compounds below were run on RPMI-8226 leukemia (assay: inhibition of tumour cell growth, NCI panel, 48 h).
For `C=CCOC(C)n1c(C)cc(=O)n(C(C)OCC=C)c1=O` (stereo unspecified), the TGI was > 100 µM.
For `O=C(c1ccccc1)N1CCN2CCN=C(c3ccccc3)C21c1ccccc1` (stereo unspecified), the TGI was > 100 µM.
In the case of `CCCCCCCCCCCCCCCC/C(C(=O)OC)=C(/O)C(=O)OCC`, the TGI was > 100 µM.
For `Nc1nc(-c2ccco2)cc(-c2ccco2)n1`, the TGI was > 100 µM.

Each compound was assayed on RXF 393 renal (assay: inhibition of tumour cell growth, NCI panel, 48 h).
In the case of `C=CCOC(C)n1c(C)cc(=O)n(C(C)OCC=C)c1=O` (stereo unspecified), the TGI was > 100 µM.
For `O=C(c1ccccc1)N1CCN2CCN=C(c3ccccc3)C21c1ccccc1` (stereo unspecified), the TGI was > 100 µM.
With `CCCCCCCCCCCCCCCC/C(C(=O)OC)=C(/O)C(=O)OCC` the TGI was > 100 µM.
With `Nc1nc(-c2ccco2)cc(-c2ccco2)n1` the TGI was > 100 µM.

What follows are compounds tested on SF-268 CNS (assay: inhibition of tumour cell growth, NCI panel, 48 h).
With `C=CCOC(C)n1c(C)cc(=O)n(C(C)OCC=C)c1=O` (stereo unspecified) the TGI was > 100 µM.
In the case of `CCCCCCCCCCCCCCCC/C(C(=O)OC)=C(/O)C(=O)OCC`, the TGI was > 100 µM.
For `Nc1nc(-c2ccco2)cc(-c2ccco2)n1`, the TGI was > 100 µM.

Each compound was assayed on SF-295 CNS (assay: inhibition of tumour cell growth, NCI panel, 48 h).
In the case of `C=CCOC(C)n1c(C)cc(=O)n(C(C)OCC=C)c1=O` (stereo unspecified), the TGI was > 100 µM.
With `O=C(c1ccccc1)N1CCN2CCN=C(c3ccccc3)C21c1ccccc1` (stereo unspecified) the TGI was > 100 µM.
For `CCCCCCCCCCCCCCCC/C(C(=O)OC)=C(/O)C(=O)OCC`, the TGI was > 100 µM.
`Nc1nc(-c2ccco2)cc(-c2ccco2)n1` was tested, and the TGI was > 100 µM.

These compounds were tested on SF-539 CNS (assay: inhibition of tumour cell growth, NCI panel, 48 h).
For `C=CCOC(C)n1c(C)cc(=O)n(C(C)OCC=C)c1=O` (stereo unspecified), the TGI was > 100 µM.
For `O=C(c1ccccc1)N1CCN2CCN=C(c3ccccc3)C21c1ccccc1` (stereo unspecified), the TGI was > 100 µM.
In the case of `CCCCCCCCCCCCCCCC/C(C(=O)OC)=C(/O)C(=O)OCC`, the TGI was > 100 µM.
With `Nc1nc(-c2ccco2)cc(-c2ccco2)n1` the TGI was > 100 µM.

These compounds were tested on SK-MEL-2 melanoma (assay: inhibition of tumour cell growth, NCI panel, 48 h).
With `O=C(c1ccccc1)N1CCN2CCN=C(c3ccccc3)C21c1ccccc1` (stereo unspecified) the TGI was > 100 µM.
`CCCCCCCCCCCCCCCC/C(C(=O)OC)=C(/O)C(=O)OCC` was tested, and the TGI was > 100 µM.
In the case of `Nc1nc(-c2ccco2)cc(-c2ccco2)n1`, the TGI was > 100 µM.
